# Measured values published in patent US20210212934A1, “METHODS FOR PROVIDING LONG-LASTING ANESTHETIC EFFECT USING MICROPARTICLES” (priority 2007, published 2021).
# Test: In vitro lidocaine release from microparticles (dialysis tube, water, 37° C., UV 214 nm)
# Assay type: physicochemical
# Protocol: Microparticle batches in an amount of 100 mg were placed in a dialysis tube (high retention seamless cellulose tubing; 23 mm×15 mm. MW cut-off 05173; Sigma Aldrich). The tube was then placed in a 30 ml glass vial containing 10 ml of deionized ultra-filtered water (Fisher Scientific). Vials were placed in a reciprocating shaking bath (Reciprocating Shaking Bath Model 50; Precision Scientific) with the temperature adjusted to 37° C., and shaking speed of 100 rpm. […] The entire 10 ml of dissolution medium was replaced with fresh medium at each sampling time interval. Dilution of 0.1 ml of the withdrawn sample was diluted to 10 ml of water in clean culture tubes of borosilicate glass (Pyrex). […] Two samples per microparticle batch were measured for drug release and triplicate samples were prepared for each release interval for UV-absorbance.
smiles,measurement,setting,value
"CCN(CC)CC(=O)Nc1c(C)cccc1C [lidocaine free base, lidocaine]",time of peak of release,"in vitro release profile, single peak",about one
same,time at which release falls below minimum required level (5.6%),"in vitro release, point 10",2.5 days
same,"time at which drug is ""exhausted""","in vitro release, time point 11",3 days
same,peak of lidocaine release,"in vitro, % released at peak at about one day",18%
